The experiment has as its system Sprague-Dawley rats. As to the kind of experiment: Citrate in rats with ischemia/reperfusion injury or sham operation on a high phosphate diet with intermittent dehydration. The class given is in vivo, rat. To be noted: day 60. The procedure:
A total of 48 male and female Sprague-Dawley rats (150-200 g body weight at start of experiment) were divided in eight groups (A to H) containing 6 animals each (Table 1). On day 1 of the experiment groups A, B, E and F got 30 minutes of bilateral renal ischemia reperfusion injury, while control groups C, D, G and H were sham operated (12) (Table 1). The rats were given 48 hours to recover and BUN and serum creatinine levels were then determined.
On day 3 all groups (A to H) were put on a high phosphorus diet (NIH-07 diet, see reference #6) for 60 days. All groups were dehydrated for 8 hours once a week. While groups B, D, F and H received citrate (2% wt) in their drinking water, the other groups had access to regular tap water, except during periods of dehydration. As rats typically consume a daily average of 10 ml of water per 100 g of body weight, each rat of groups B, D, F and H received an approximate daily dosage of 2 g of citrate per kg of body weight.
On day 30 arterial blood samples were collected for pH, BUN and serum creatinine measurements.
On day 60 all animals were sacrificed. Arterial blood samples were collected for serum pH, phosphorus, BUN and creatinine measurements. Bladder urine samples were collected for pH measurements. Kidneys were longitudinally dissected, formalin fixed and paraffin embedded for generation of light microscopic sections. Additional paraffin embedded tissue sections were stained with “von Kossa” stain for calcium crystal identification and LM tissue sections were scored for acute tubular injury as described elsewhere.
Statistically significant differences between experimental groups were determined using Bonferroni t-tests and analysis of variance.

As for `O=C(O)CC(O)(CC(=O)O)C(=O)O` [citrate], the “Decrease of serum phosphorus levels” value (all groups (male/female, I/R or sham), high phosphate diet, citrate in drinking water) came to 30%. For the setting “all study groups”, the “Effect on serum pH” value is given as “did not have a significant effect” and the “Effect on urine pH” value is on record as “did not have a significant effect”. The “Histology: tubular injury, casts and calcium phosphate crystals” value (female I/R rats with citrate supplementation) was “focal tubular dilation but no casts and no calcium phosphate crystals”. The “Histology: tubular morphology” value (female sham operated rats, without vs with citrate) was “no significant difference in tubular morphology”. Further, the “Histology: morphologic changes of ATN” value (male I/R rats with citrate supplementation) was “markedly reversed”. The “Serum BUN levels (renal function)” value (male and female rats with I/R, high phosphate diet, citrate 2% wt in drinking water) was “returned BUN levels to near control values”. Besides, the “Histology: tubular injury and cast formation” value (male sham operated rats with citrate supplementation) is “markedly decreased tubular injury and cast formation”.

The record behind these values is patent publication US20090062387A1, “METHOD OF PREVENTING NEPHROCALCINOSIS” (priority 2007, published 2009).
